Experimental data published in patent US4812456A, “1-(N-(2-alkylthio-10H-phenothiazin-10-yl)alkyl)-4-benzoylpiperidines and pharmaceutical use” (Hoechst-Roussel Pharmaceuticals Inc., priority 1987, dated 1989).

Key:
mice [1] = assay: phenyl-p-quinone writhing assay in mice (analgesic activity, modified); type: in vivo, male mice (Charles River, CD-1); details: Mus musculus, sc, tested at peak time, estimated dose at which 50% inhibition of writhing is produced, computer linear regression
Description: The procedure employed to determine analgesic utility is a modification of the phenyl-p-quinone writhing assay in mice, a standard assay for analgesia (Proc. Soc. Exptl. Bio. Med., 95 729 (1957)]. In the modified procedure phenyl-p-benzoquinone (Eastman, 12.5 mg) is dissolved in 5 ml of 95% ethanol and the solution is diluted to a total volume of 100 ml with distilled water. The solution is administered to the subject mice […] at a dose of 10 ml per kg of body weight. A characteristic "writh", an inward rotation of one or more feet with twisting and turning of the trunk, drawing in of the abdominal wall, lordosis and arching of the back, is produced.
A total of 28 male mice (Charles River, CD-1), weighing 18 to 30 grams, are employed for a time response. The subject animals receive food and water ad libitum. Test compounds are dissolved in distilled water, or suspended in distilled water containing one drop of a suitable surfactant, such as Tween-80.
Four groups of five animals (20 animals) are given the test compound subcutaneously at 15, 30, 45 and 60 minutes prior to administration of the phenyl-p-quinone. Four control groups of 2 animals (8 animals) receive an equal volume of the vehicle. […] The number of writhes for each animal is recorded. […]

mice [2] = assay: climbing mice assay (apomorphine climbing, antipsychotic activity); type: in vivo, CK-1 male mice; details: Mus musculus, ip, compound 30 minutes prior to apomorphine 1.5 mg/kg subcutaneously, climbing scores at 10, 20 and 30 minutes, linear regression, read-out: Anti-Psychotic Activity (ED50)
Description: The subject CK-1 male mice (23-27 grams) are group-housed under standard laboratory conditions. The mice are individually placed in wire mesh stick cages (4"×4" by 10") and are allowed one hour for adaptation and exploration of the new environment.
Mice consistently climbing before the injection of apomorphine are discarded.
With full-developed apomorphine climbing, the animals are hanging onto the cage walls, rather motionless, over longer periods of time. By contrast, climbs due to mere motor stimulation usually last only a few seconds.

Row | SMILES | ED50 (mice [1]) | ED50 (mice [2])
1 | CSc1ccc2c(c1)N(CCCN1CCC(C(=O)c3ccc(F)cc3)CC1)c1ccccc1S2.O=C(O)/C=C/C(=O)O [4-(4-Fluorobenzoyl)-1-[3-(2-methylthio-10H-phenothiazin-10-yl)propyl]piperidine fumarate] | 6.1 mg/kg | 1.4 mg/kg
2 | CC(C)=CCN1CCC2(C)c3cc(O)ccc3CC1C2C (stereo not shown) [Pentazocine] | 1.3 mg/kg | –
3 | CSc1ccc2c(c1)N(CCC1CCCCN1C)c1ccccc1S2 (stereo not shown) [Thioridazine] | – | 4.1 mg/kg
